# Legend:
# Type in all cases: cell-based
# hSTING and/or mSTING = assay: hSTING- or mSTING-dependent ISRE-luc reporter assay in 293T cells; conditions: 24 hours
# Procedure: ISRE-luc (reporter), pRL-TK (internal control) and hSTING- or mSTING-expressing plasmids were transiently transfected into 293T cells. Cells were exposed to DMSO vehicle control or compounds for 24 hours. Experiments were done in triplicate.
# [1] = tested on: phosphorylation of ERK in Panc 10.05 cells; assay: Western blot, phosphorylation of ERK in Panc 10.05 cells; conditions: 10 μM, 24 hours
# Procedure: C-PARP, cleaved PARP. Panc10.05 cells were exposed to DMSO vehicle or compounds at designated doses for 24 hours.
# Panc10.05 cells were exposed to DMSO vehicle or compounds at designated doses for 24 hours.
# human STING (hSTING) = biological target: T1, human STING (hSTING) (Homo sapiens, UniProt Q86WV6); assay: hSTING ISRE-luc reporter assay in 293T cells; conditions: 24 hours
# T1 construct: expressed in transfected cells; host or cells: 293T
# Procedure: ISRE-luc (reporter), pRL-TK (internal control) and hSTING-expressing plasmids were transiently transfected into 293T cells. Cells were exposed to DMSO vehicle control or compounds for 24 hours. Experiments were done in triplicate.
# mouse STING (mSTING) = biological target: T2, mouse STING (mSTING) (Mus musculus, UniProt Q3TBT3); assay: mSTING ISRE-luc reporter assay in 293T cells; conditions: 24 hours
# T2 construct: expressed in transfected cells; host or cells: 293T
# T2 sequence (Q3TBT3 1-378): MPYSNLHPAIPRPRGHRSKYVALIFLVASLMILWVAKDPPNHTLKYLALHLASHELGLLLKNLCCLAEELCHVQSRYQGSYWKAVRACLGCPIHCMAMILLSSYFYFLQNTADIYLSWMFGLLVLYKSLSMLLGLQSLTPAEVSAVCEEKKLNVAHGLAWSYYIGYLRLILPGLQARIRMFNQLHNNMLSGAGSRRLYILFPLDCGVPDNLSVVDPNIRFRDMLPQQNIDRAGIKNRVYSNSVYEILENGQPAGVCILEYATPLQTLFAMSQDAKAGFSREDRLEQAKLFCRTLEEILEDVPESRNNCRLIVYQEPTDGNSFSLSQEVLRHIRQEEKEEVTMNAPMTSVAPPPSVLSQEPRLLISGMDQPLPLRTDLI
# Procedure: ISRE-luc (reporter), pRL-TK (internal control) and mSTING-expressing plasmids were transiently transfected into 293T cells. Cells were exposed to DMSO vehicle control or compounds for 24 hours. Experiments were done in triplicate.
# [2] = tested on: interferon signaling pathway in THP-1 cells; assay: Western blot, interferon signaling in THP-1 cells; conditions: 16 hours
# Procedure: THP1 cells were treated for 16 hours with the indicated concentration (μM) of compounds or DMSO vehicle control. Whole-cell extracts were prepared and subjected to Western blot analysis with the antibodies as indicated.
# human GATA3 = biological target: T3, human GATA3 (Homo sapiens, UniProt P23771); assay: GATA3-dependent reporter assay in IHH cells; conditions: 48 hours, 10 μM
# T3 construct: expressed in transfected cells; host or cells: IHH
# Procedure: The IHH cells were transiently transfected with empty vector (for the NT) or human GATA3-expressing plasmid as well as pRL-TK (internal control) and GATA-Luc reporter plasmids. Cells were exposed to DMSO vehicle or compounds for 48 hours. Experiments were done in triplicate.
# human GATA2 = biological target: T4, human GATA2 (Homo sapiens, UniProt P23769); assay: GATA2-dependent reporter assay in IHH cells; conditions: GATA-Luc reporter, 48 h
# T4 construct: expressed in transfected cells; host or cells: IHH
# T4 sequence (P23769 1-480): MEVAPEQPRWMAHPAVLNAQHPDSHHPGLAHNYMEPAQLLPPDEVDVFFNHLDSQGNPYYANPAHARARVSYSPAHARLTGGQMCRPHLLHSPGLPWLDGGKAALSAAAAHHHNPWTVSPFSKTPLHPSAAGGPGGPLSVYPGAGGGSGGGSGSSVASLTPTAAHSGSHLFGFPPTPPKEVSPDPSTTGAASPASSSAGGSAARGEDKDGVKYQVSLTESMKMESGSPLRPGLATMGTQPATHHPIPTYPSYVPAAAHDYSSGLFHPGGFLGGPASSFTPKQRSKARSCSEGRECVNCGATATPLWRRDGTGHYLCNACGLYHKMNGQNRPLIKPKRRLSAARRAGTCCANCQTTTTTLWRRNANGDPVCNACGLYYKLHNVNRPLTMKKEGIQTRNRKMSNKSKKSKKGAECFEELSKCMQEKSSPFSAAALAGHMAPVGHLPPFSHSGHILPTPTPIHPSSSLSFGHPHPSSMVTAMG
# Procedure: K7174 is a known GATA2 inhibitor. The IHH cells were transiently transfected with empty vector (for the NT) or human GATA2-expressing plasmid as well as pRL-TK (internal control) and GATA-Luc reporter plasmids. Cells were exposed to DMSO vehicle or compounds for 48 h. Experiments were in triplicate.
# ERG = biological target: T5, ERG (Homo sapiens, UniProt P11308); assay: ERG-dependent reporter assay in HEK293 cells; set-up: expressed in transfected cells; host or cells: HEK293; conditions: PUx3-Luc reporter, 48 hours, designated doses
# T5 sequence (P11308 1-486 isoform P11308-3): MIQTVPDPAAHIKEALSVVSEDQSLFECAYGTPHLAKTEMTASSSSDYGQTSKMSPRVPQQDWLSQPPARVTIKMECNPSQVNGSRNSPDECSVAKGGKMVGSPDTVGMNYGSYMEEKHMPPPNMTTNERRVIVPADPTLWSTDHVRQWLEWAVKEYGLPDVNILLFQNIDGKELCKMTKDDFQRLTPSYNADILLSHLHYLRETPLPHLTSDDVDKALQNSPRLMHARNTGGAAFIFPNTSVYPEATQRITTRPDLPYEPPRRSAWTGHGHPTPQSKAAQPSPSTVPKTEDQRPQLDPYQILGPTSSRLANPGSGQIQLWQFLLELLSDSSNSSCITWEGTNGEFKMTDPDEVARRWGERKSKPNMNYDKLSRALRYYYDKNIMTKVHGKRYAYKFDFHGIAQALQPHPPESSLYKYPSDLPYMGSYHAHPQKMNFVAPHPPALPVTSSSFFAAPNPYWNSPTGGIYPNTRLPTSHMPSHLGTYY
# Procedure: (§1) HEK293 cells were transiently transfected with empty vector (for the NT) or ERG-expressing plasmid as well as pRL-TK (internal control) and PUx3-Luc reporter. Cells were then exposed to DMSO vehicle or compounds at designated doses for 48 hours. Experiments were done in triplicate.
# ETV1 = biological target: T6, ETV1 (Homo sapiens, UniProt P50549); assay: ETV1-dependent reporter assay in HEK293 cells; conditions: 48 hours
# T6 construct: expressed in transfected cells; host or cells: HEK293
# T6 sequence (P50549 1-477): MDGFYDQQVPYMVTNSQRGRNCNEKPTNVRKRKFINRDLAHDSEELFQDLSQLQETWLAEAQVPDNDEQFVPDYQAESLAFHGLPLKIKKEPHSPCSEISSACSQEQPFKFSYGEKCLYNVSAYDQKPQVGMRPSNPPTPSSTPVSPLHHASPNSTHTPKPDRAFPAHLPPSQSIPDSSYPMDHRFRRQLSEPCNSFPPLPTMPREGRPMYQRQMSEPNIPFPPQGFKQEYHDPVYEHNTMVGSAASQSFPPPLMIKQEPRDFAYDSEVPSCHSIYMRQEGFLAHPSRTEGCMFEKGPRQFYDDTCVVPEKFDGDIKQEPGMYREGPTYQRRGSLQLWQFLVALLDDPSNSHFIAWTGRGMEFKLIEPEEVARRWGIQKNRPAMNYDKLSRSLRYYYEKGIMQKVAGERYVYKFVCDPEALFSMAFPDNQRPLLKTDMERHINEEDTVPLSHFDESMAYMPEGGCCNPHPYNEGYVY
# Procedure: as §1
# Experiments were done as described above in FIG. 1.1a) except that ERG plasmid was replaced by ETV1 plasmid.
# [3] = tested on: phosphorylation of ERK in HCT-116 cells; assay: Western blot, phosphorylation of ERK in HCT-116 cells; conditions: 10 μM, 24 hours
# Procedure: HCT-116 cells were exposed to DMSO vehicle or compounds at designated doses for 24 hours.
# T1 sequence (Q86WV6 whole entry H232R): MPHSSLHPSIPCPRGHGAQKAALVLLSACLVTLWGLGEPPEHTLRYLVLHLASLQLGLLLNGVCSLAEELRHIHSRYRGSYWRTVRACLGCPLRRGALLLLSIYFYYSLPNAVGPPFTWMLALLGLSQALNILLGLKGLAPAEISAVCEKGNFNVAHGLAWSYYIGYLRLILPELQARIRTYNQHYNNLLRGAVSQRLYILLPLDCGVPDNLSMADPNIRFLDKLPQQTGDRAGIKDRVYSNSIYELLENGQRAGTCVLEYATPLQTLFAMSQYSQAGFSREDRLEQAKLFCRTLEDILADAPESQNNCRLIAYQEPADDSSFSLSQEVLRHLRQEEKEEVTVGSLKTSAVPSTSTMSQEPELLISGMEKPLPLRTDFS
# T3 sequence (P23771 whole entry): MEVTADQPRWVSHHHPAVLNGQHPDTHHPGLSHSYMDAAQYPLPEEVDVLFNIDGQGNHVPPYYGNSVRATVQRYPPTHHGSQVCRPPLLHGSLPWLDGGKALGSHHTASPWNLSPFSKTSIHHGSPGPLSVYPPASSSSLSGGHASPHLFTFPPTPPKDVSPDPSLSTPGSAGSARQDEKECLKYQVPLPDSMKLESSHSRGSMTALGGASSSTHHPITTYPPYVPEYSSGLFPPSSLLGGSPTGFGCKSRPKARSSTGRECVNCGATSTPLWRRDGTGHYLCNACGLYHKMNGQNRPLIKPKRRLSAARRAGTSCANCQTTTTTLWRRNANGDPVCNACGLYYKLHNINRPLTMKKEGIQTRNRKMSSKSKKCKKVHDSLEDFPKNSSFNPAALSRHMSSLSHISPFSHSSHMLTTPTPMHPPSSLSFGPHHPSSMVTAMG
compound,measurement,setting,value
Fc1cccc(-c2nc(CN3CCC(c4noc5ccccc45)CC3)[nH]c2-c2cccc(F)c2)c1 [Compound 1100],activation of hSTING and/or mSTING in ISRE-luc reporter assay,hSTING and/or mSTING,activate hSTING and/or mSTING
same,suppression of phosphorylation of ERK (Western blot),[1],potently suppressed phosphorylation of ERK
FC(F)(F)c1cccc(-c2nc(CCCc3c[nH]c4ccccc34)oc2-c2cccc(C(F)(F)F)c2)c1 [Compound 681],activation of hSTING in ISRE-luc reporter assay,human STING (hSTING),activate human STING (hSTING)
same,activation of mSTING in ISRE-luc reporter assay,mouse STING (mSTING),activate mouse STING (mSTING)
Fc1cccc(-c2nc(CCc3c[nH]c4ccccc34)oc2-c2cccc(F)c2)c1 [Compound 761],activation of interferon signaling pathway (Western blot),[2],activate interferon signaling pathway
same,activation of hSTING in ISRE-luc reporter assay,human STING (hSTING),activate human STING (hSTING)
same,activation of mSTING in ISRE-luc reporter assay,mouse STING (mSTING),activate mouse STING (mSTING)
c1ccc(CN2CCN(Cc3nc(-c4ccccc4)c(-c4ccccc4)o3)CC2)cc1 [Compound 1176],activation of hSTING and/or mSTING in ISRE-luc reporter assay,hSTING and/or mSTING,activate hSTING and/or mSTING
same,activation of hSTING and/or mSTING in ISRE-luc reporter assay,hSTING and/or mSTING; 10 μM,activate hSTING and/or mSTING
same,activation of interferon signaling pathway (Western blot),[2],activate interferon signaling pathway
COc1cccc(-c2nc(CCCc3c[nH]c4ccccc34)oc2-c2cccc(OC)c2)c1 [Compound 640],activation of hSTING in ISRE-luc reporter assay,human STING (hSTING),activate human STING (hSTING)
same,activation of mSTING in ISRE-luc reporter assay,mouse STING (mSTING),activate mouse STING (mSTING)
Oc1cccc(-c2nc(CCc3c[nH]c4ccccc34)oc2-c2cccc(O)c2)c1 [Compound 675],activity against GATA3 in GATA3-dependent reporter assay,human GATA3,inactive against GATA3
same,GATA2 inhibition in GATA2-dependent reporter assay,human GATA2,GATA2 inhibitors
same,ERG inhibition in ERG-dependent reporter assay,ERG,ERG inhibitors
same,ETV1 inhibition in ETV1-dependent reporter assay,ETV1,ETV1 inhibitors
N#CCN(CCc1c[nH]c2ccccc12)Cc1nc(-c2ccccc2)c(-c2ccccc2)[nH]1 [Compound 1187],suppression of phosphorylation of ERK (Western blot),[3],potently suppressed phosphorylation of ERK
same,suppression of phosphorylation of ERK (Western blot),[1],potently suppressed phosphorylation of ERK
COc1ccc(CC/C(=C/C(=O)N2CCC(O)(c3cccc(C(F)(F)F)c3)CC2)c2ccccc2)cc1F [Compound 1200],suppression of phosphorylation of ERK (Western blot),[1],potently suppressed phosphorylation of ERK
OC1(c2cccc(C(F)(F)F)c2)CCN(Cc2nc(-c3cccc(F)c3)c(-c3cccc(F)c3)[nH]2)CC1 [Compound 1209],suppression of phosphorylation of ERK (Western blot),[3],potently suppressed phosphorylation of ERK
COc1cccc(N2CCN(C(=O)C/C(=C/Cc3ccc(OC)c(F)c3)c3ccccc3)CC2)c1 [Compound 1237],suppression of phosphorylation of ERK (Western blot),[3],potently suppressed phosphorylation of ERK
same,suppression of phosphorylation of ERK (Western blot),[1],potently suppressed phosphorylation of ERK
Fc1cccc(-c2oc(CCCc3c[nH]c4ccccc34)nc2-c2ccco2)c1 [Compound 834],GATA2 inhibition in GATA2-dependent reporter assay,human GATA2,GATA2 inhibitors
same,activation of interferon signaling pathway (Western blot),[2],activate interferon signaling pathway
same,activation of hSTING in ISRE-luc reporter assay,human STING (hSTING),activate hSTING
COc1cccc(-c2oc(CCCc3c[nH]c4ccccc34)nc2-c2ccco2)c1 [Compound 840],GATA2 inhibition in GATA2-dependent reporter assay,human GATA2,GATA2 inhibitors
same,activation of interferon signaling pathway (Western blot),[2],activate interferon signaling pathway
same,activation of hSTING in ISRE-luc reporter assay,human STING (hSTING),activate hSTING
FC(F)(F)c1ccc(-c2nc(CCCc3c[nH]c4ccccc34)oc2-c2ccc(C(F)(F)F)cc2)cc1 [Compound 672],activation of hSTING in ISRE-luc reporter assay,human STING (hSTING),activate human STING (hSTING)
same,activation of mSTING in ISRE-luc reporter assay,mouse STING (mSTING),activate mouse STING (mSTING)
Fc1cccc(-c2nc(CNCCc3c[nH]c4ccccc34)[nH]c2-c2cccc(F)c2)c1 [Compound 874],activation of hSTING and/or mSTING in ISRE-luc reporter assay,hSTING and/or mSTING,activate hSTING and/or mSTING
same,activation of hSTING and/or mSTING in ISRE-luc reporter assay,hSTING and/or mSTING; 10 μM,activate hSTING and/or mSting
same,activation of interferon signaling pathway (Western blot),[2],activate interferon signaling pathway
COc1ccc(CC/C(=C/C(=O)N2CCC(O)(c3ccccc3)CC2)c2ccc(Cl)cc2)cc1F [Compound 1306],suppression of phosphorylation of ERK (Western blot),[3],potently suppressed phosphorylation of ERK

# From patent US10844051B2, “Substituted oxazoles for the treatment of cancer” (THE ROYAL INSTITUTION FOR THE ADCANCEMENT OF …, priority 2015, dated 2020)
